Active and inactive are the calls of the source.
Experiments:
[1] = molecular target: T1, Voltage-gated N-type calcium channel alpha-1B subunit/Amyloid beta A4 precursor protein-binding family A member 1 (Homo sapiens, UniProt Q00975+Q02410); type: protein assay
[2] = molecular target: T1, Voltage-gated N-type calcium channel alpha-1B subunit/Amyloid beta A4 precursor protein-binding family A member 1; type: protein assay; remark: listed apart in the source
[3] = molecular target: T2, Short transient receptor potential channel 4 (Mus musculus, UniProt Q9QUQ5); experiment: block of DAMGO-driven TRPC4 calcium entry – cell-based, HEK293 TRPC4/mu-opioid, Fluo-4 calcium, dose response (AID 434942); type: functional;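 also: potency of inhibitors blocking the TRPC4 calcium response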
T2 sequence (Q9QUQ5 whole entry): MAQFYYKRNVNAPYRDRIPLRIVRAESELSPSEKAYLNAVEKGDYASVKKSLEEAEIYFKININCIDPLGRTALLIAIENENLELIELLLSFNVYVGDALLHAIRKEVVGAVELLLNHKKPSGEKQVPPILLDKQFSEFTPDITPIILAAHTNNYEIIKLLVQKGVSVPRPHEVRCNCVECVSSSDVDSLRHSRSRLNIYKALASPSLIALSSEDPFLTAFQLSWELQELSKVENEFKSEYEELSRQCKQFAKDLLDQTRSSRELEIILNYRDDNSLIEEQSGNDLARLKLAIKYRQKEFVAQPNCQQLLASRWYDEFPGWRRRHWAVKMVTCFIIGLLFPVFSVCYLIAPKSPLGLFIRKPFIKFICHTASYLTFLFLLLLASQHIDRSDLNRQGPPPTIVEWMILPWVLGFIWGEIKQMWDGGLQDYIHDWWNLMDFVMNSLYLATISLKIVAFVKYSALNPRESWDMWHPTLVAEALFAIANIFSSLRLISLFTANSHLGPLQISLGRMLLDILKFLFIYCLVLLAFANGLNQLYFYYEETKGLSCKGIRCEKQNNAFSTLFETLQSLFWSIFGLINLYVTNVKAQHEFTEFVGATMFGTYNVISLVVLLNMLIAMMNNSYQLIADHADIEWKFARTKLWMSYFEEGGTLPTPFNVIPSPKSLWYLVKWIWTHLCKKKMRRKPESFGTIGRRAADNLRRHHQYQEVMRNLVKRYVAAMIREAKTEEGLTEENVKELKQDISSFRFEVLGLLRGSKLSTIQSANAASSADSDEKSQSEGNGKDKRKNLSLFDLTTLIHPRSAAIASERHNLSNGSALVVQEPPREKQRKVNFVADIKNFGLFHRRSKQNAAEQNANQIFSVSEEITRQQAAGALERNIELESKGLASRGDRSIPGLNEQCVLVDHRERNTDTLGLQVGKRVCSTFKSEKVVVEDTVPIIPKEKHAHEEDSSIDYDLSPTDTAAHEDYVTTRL

Vero = experiment: cells; type: functional, cell-based; settings: Chlorocebus sabaeus
[4] = molecular target: Glyceraldehyde-3-phosphate dehydrogenase (Homo sapiens, UniProt P04406)
[5] = molecular target: Alkaline phosphatase, placental type (Homo sapiens, UniProt P05187); experiment: human placental alkaline phosphatase inhibition – biochemical, luminescence, confirmation (AID 1512); type: functional
[6] = molecular target: T3, Alkaline phosphatase, tissue-nonspecific isozyme (Homo sapiens, UniProt P05186); experiment: potency against alkaline phosphatase TNAP – biochemical, luminescent, dose response, SAR follow-up (AID 1056)
T3 sequence (P05186 whole entry): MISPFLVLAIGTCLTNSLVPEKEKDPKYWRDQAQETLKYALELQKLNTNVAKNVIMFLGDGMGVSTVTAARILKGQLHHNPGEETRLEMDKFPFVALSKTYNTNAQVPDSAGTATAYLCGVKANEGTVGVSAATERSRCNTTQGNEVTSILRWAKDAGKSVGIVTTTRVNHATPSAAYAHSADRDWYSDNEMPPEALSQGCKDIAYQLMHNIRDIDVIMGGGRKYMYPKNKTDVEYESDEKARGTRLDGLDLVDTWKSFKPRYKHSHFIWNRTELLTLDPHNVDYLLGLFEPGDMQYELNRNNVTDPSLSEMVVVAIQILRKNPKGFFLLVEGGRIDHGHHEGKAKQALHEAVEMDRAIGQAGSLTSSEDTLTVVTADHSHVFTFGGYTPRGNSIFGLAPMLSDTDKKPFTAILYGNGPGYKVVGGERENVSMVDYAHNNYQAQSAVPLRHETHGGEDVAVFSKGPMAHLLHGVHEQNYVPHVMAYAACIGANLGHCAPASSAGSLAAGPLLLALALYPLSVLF

[7] = molecular target: T2, Short transient receptor potential channel 4; experiment: calcium entry via TRPC4 opening agents – cell-based, HEK293 TRPC4/mu-opioid, Fluo-4 calcium, dose response (AID 434937); type: functional
[8] = Trypanosoma cruzi growth suppression in host cells – NIH3T3 host cells, beta-gal luminescence, confirmation (AID 2044); type: functional, cell-based;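 also: intracellular parasites grown in NIH/3T3 mouse fibroblasts as host cells; luminescent beta-galactosidase reporter signal from transgenic T. cruzi replicating inside host cells; inhibitors lower the luminescence signal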
[9] = NIH3T3 cell viability loss – ATP luminescence, mouse fibroblasts, counter-screen, dose response (AID 2010); type: functional, cell-based;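 also: cells exposed to compound for about 90 hours before reading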
[10] = molecular target: T4, Replicative DNA helicase DnaB (Mycobacterium tuberculosis, UniProt P9WMR3); experiment: DnaB intein splicing inhibitors, dose response, biochemical, cell-free fluorescence (AID 449749); type: functional
T4 sequence (P9WMR3 whole entry): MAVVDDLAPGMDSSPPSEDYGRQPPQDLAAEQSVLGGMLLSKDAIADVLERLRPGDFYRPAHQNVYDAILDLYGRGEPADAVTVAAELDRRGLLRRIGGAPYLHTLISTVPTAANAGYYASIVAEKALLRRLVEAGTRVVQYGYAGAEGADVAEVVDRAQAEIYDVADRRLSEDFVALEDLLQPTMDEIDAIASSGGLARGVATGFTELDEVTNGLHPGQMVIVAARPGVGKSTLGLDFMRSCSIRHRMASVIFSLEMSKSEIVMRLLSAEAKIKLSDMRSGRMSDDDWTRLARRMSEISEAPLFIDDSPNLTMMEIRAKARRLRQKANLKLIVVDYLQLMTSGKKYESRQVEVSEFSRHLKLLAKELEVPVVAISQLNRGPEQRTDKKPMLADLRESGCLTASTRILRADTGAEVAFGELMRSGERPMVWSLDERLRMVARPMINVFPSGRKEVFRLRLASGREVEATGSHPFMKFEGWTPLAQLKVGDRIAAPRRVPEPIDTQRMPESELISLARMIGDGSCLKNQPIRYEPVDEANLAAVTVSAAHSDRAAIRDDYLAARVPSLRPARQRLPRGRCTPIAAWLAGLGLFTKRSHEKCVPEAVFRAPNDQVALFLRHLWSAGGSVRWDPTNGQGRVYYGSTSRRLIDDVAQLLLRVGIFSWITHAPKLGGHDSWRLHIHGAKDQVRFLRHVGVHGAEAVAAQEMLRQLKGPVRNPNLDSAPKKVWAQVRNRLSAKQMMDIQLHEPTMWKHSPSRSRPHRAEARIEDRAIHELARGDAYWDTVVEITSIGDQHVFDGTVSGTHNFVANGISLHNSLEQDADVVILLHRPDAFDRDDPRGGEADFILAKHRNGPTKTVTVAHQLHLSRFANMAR

Protein RecA = molecular target: T5, Protein RecA (Mycobacterium tuberculosis, UniProt P9WHJ3); experiment: Fluorescence Cell-Free Homogeneous Dose Retest to Identify Inhibitors of RecA-Intein Splicing Activity. [Related pubchem assays (depositor defined):AID2097, AID2223, AID489010, AID492950]; type: functional
T5 sequence (P9WHJ3 whole entry): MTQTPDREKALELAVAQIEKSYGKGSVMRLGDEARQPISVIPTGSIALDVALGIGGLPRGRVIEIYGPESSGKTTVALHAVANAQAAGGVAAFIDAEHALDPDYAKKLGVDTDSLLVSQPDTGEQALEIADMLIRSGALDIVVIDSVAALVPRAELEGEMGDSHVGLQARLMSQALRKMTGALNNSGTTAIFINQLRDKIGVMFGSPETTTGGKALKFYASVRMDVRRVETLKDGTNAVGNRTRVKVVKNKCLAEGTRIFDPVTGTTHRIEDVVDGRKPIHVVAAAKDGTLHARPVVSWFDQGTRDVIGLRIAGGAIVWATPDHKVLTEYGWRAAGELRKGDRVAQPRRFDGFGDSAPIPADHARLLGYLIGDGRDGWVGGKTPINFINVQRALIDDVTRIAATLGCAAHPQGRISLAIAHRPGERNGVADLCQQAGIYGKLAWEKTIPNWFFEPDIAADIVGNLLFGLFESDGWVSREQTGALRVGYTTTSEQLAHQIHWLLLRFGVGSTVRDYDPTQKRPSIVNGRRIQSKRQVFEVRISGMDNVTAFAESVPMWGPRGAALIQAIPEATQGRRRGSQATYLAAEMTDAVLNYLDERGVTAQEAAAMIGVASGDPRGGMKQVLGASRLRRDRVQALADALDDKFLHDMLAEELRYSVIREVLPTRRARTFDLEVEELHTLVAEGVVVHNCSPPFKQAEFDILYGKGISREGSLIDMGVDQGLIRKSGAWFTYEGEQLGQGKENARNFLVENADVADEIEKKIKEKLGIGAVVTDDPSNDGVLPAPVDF

Alkaline phosphatase, placental type, sequence (P05187 whole entry): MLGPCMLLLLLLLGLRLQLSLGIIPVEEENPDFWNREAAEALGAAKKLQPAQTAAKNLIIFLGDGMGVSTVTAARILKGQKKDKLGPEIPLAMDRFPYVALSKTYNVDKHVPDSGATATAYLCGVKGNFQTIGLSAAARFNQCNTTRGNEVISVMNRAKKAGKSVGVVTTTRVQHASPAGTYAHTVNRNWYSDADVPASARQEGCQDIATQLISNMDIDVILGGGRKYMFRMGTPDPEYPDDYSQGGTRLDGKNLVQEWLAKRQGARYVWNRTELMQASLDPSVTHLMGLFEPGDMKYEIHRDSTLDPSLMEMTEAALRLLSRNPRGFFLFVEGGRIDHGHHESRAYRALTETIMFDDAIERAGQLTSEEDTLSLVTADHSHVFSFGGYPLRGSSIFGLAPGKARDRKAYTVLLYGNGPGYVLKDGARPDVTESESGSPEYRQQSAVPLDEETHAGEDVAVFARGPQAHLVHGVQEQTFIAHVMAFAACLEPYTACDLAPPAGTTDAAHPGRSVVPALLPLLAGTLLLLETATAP
T1 sequence (Q00975 whole entry): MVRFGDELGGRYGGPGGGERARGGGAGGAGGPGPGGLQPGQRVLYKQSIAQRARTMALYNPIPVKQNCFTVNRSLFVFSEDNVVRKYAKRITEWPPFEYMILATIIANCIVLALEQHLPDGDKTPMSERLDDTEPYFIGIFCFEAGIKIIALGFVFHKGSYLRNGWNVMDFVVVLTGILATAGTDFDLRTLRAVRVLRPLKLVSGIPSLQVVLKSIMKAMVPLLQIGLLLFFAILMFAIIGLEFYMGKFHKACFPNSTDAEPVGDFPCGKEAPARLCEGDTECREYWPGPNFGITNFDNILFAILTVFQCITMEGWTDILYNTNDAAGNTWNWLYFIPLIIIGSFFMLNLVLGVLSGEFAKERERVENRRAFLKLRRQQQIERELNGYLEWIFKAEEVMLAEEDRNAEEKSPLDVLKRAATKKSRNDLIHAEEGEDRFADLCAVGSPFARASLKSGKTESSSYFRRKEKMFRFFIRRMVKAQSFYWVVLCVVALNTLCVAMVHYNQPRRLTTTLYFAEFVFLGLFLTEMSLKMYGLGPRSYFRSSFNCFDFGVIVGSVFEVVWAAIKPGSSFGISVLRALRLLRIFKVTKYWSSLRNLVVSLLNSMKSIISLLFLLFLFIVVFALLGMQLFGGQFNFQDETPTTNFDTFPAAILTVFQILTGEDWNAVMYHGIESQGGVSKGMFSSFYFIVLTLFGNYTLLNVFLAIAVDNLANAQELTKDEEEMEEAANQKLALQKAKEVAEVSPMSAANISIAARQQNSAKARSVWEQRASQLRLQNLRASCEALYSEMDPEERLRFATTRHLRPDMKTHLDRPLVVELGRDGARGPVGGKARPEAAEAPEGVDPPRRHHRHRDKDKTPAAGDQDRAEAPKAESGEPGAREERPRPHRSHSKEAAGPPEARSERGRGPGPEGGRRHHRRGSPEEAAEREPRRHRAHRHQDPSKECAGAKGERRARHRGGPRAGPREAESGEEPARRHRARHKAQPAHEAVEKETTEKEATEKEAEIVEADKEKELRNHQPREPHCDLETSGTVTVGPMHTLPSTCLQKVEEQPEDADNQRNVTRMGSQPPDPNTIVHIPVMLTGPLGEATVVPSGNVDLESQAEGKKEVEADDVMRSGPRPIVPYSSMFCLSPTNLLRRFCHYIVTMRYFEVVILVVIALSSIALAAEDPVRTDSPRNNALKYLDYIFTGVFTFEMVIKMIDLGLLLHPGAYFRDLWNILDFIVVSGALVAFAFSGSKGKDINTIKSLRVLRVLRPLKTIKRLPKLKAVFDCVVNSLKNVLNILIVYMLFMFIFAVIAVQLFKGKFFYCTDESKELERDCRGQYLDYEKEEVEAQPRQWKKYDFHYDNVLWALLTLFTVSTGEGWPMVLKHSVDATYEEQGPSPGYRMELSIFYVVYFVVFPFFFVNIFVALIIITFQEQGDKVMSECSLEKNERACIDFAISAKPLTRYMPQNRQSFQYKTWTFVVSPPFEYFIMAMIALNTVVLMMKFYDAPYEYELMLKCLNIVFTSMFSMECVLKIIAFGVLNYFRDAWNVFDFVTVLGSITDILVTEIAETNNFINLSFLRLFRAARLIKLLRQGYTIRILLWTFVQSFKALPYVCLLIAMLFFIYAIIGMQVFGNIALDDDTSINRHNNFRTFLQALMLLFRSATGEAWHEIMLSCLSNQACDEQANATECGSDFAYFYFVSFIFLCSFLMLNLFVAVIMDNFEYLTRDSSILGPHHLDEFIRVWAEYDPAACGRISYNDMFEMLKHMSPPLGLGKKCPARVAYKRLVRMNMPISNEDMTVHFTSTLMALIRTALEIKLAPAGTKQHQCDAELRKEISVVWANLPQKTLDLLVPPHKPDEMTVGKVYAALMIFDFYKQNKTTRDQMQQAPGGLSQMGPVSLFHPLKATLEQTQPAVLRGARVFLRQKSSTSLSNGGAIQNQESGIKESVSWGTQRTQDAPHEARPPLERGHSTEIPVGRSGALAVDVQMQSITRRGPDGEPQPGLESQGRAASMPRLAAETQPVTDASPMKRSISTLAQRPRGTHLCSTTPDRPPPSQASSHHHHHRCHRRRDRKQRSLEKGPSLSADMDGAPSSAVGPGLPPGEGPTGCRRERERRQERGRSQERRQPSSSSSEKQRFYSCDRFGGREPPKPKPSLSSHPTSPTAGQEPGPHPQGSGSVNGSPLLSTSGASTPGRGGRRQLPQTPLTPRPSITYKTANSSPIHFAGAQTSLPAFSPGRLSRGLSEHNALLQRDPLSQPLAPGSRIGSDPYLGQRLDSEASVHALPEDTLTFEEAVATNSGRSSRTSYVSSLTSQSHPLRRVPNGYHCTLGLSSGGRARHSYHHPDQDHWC
T1 sequence (Q02410 whole entry): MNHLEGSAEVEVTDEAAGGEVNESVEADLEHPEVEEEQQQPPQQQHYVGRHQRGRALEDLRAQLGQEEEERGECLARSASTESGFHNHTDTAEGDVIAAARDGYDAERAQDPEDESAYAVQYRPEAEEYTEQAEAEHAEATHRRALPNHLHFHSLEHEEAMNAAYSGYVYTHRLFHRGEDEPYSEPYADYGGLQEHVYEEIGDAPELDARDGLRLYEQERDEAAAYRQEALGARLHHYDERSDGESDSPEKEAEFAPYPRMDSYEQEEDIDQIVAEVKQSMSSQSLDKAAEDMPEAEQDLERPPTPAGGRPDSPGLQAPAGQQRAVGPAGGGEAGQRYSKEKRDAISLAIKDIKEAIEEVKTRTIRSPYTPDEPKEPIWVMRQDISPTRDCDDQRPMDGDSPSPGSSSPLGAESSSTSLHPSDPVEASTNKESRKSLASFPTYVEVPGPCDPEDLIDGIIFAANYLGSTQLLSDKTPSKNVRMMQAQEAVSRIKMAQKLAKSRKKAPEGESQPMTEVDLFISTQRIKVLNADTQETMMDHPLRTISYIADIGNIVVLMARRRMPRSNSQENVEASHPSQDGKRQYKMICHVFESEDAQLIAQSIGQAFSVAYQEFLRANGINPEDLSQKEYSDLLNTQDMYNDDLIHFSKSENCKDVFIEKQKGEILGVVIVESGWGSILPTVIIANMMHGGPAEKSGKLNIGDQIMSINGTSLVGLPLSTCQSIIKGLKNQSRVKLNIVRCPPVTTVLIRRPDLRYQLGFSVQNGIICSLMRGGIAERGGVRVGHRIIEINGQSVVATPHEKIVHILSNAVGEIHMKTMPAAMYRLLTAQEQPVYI
Glyceraldehyde-3-phosphate dehydrogenase, sequence (P04406 whole entry): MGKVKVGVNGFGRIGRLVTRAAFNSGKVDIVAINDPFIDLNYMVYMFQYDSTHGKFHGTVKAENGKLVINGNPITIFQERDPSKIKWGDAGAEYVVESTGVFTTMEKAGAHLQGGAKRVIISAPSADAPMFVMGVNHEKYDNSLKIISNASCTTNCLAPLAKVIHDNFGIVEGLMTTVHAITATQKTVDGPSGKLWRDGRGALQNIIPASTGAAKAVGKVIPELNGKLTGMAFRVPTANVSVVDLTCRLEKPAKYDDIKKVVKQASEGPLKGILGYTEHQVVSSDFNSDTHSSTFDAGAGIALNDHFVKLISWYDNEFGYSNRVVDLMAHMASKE

In the case of `O=C(O)Cc1sc(Nc2ccc(Cl)cc2)nc1-c1cccs1`, the IC50 [1] is reported as 16 µM (active) and the IC50 [2] is reported as > 50 µM (inactive).
In the case of `O=C(Cc1cccc2ccccc12)Nc1ccc(Br)cc1C(=O)O`, the EC50 [3] is reported as 5.96 µM (active) and the IC50 (Vero) is reported as > 25 µM (active).
In the case of `CC1(C)CC(=O)c2c(-c3ccc(Cl)cc3)n[nH]c2C1`, the IC50 [4] is reported as > 100 µM (not active), the IC50 [5] is reported as > 100 µM (inactive) and the IC50 [6] is reported as 5.02 µM (active).
With `Nc1nnc(-c2ccc(Cl)cc2)[nH]1` the IC50 [4] was > 100 µM (not active), the IC50 [5] was > 100 µM (inactive) and the IC50 [6] was 24.5 µM (active).
In the case of `CN1CSC2=C(C#N)C(c3cccc(OCc4ccccc4)c3)CC(=O)N2C1` (configuration not stated), the IC50 [1] is reported as 7.59 µM (active) and the IC50 [2] is reported as 47.6 µM (active).
In the case of `Cc1ccccc1C(=O)Nc1c(C(=O)N(CCN(C)C)Cc2ccco2)oc2ccccc12`, the EC50 [3] is reported as 0.473 µM (active) and the EC50 [7] is reported as 4.22 µM (active).
For `COc1ccccc1/C=C/CN1CCCC(CCC(=O)NCc2ccc(F)c(F)c2)C1` (configuration not stated), the EC50 [8] was < 0.1 µM (active), the EC50 [9] was > 60 µM (not active) and the EC50 [7] was 0.168 µM (active). The EC50 (cells) was 0.043 µM (active).
For `COc1ccc(-c2n[nH]c3c2C(=O)CC(C)(C)C3)cc1`, the IC50 [4] was > 100 µM (not active), the IC50 [5] was > 100 µM (inactive) and the IC50 [6] was 3.57 µM (active).
In the case of `Cn1ncc2c1ncn1c(-c3ccc(Cl)cc3Cl)nnc21`, the IC50 [4] is reported as > 100 µM (not active), the IC50 [5] is reported as > 100 µM (inactive) and the IC50 [6] is reported as > 100 µM (inactive).
In the case of `Cc1[nH]n(C)c(=O)c1C(=O)c1c(-c2c(Cl)cccc2Cl)noc1C`, the EC50 [3] is reported as 4.22 µM (active), the AC50 [10] is reported as 5.13 µM (active) and the EC50 (Protein RecA) is reported as 1.71 µM (active).

From ChEMBL document CHEMBL1201862, “PubChem BioAssay data set” (2004)
